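96-well plates; 48 h exposure; 5 concentrations. Endpoints by linear interpolation between flanking doses. Not reached: highest tested concentration assigned. GI50 marks 50% less growth.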 Activity calls are given as the source filed them. Cut-off read from the data, not from the text of the source: active = GI50 up to about 1.1 µM and inactive = higher.

Test systems include NCI-H23; OVCAR-4; SW-620; UACC-257; SNB-19; UACC-62; SR; RPMI-8226; SF-268; SK-MEL-2; TK-10; HOP-62; HT-29; SK-MEL-28; SF-295; NCI-H522; HL-60; HCT-15; RXF 393; SNB-75.
Holding throughout (assay): DTP human tumour cell line panel, 48 h

In the case of `C#C[C@@]1(O)CCCC2=CC3(CC[C@]21C)SCCS3`, the GI50 in the assay on NCI-H23, in the assay on OVCAR-4, in the assay with SW-620, with UACC-257, in the assay on SNB-19 and with UACC-62 was > 100 µM (inactive) each time. Besides, the GI50 in the assay on SR, in the assay on RPMI-8226, in the assay on SF-268, in the assay on SK-MEL-2, in the assay on TK-10 and in the assay on HOP-62 was > 100 µM (inactive) in each case. Besides, the GI50 (as a rule, the concentration that inhibits growth by half) in the assay with HT-29 was > 100 µM (inactive); in the assay on SK-MEL-28, > 100 µM (inactive); in the assay with SF-295 it was > 100 µM (inactive); in the assay on NCI-H522 it was > 100 µM (inactive); in the assay with HL-60 it was 45.6 µM (inactive); in the assay on HCT-15, more than 100 µM. Besides, the GI50 in the assay with RXF 393 was > 100 µM (inactive).

As to `CC(CO)(CO)N1C(=O)C2C3c4ccccc4C(c4ccccc43)C2C1=O` (configuration not stated), the GI50 in the assay with NCI-H23, with SW-620, in the assay on UACC-257, with SNB-19, with UACC-62 and in the assay on SR was > 100 µM (inactive) throughout. Further, the GI50 in the assay with SF-268 was > 100 µM (inactive); in the assay on SK-MEL-2 it was > 100 µM (inactive); in the assay on SNB-75, 25.4 µM (inactive); in the assay on TK-10, > 100 µM (inactive); in the assay on HOP-62, > 100 µM (inactive); in the assay with HT-29, > 100 µM (inactive). Further, the GI50 is > 100 µM (inactive) in the assay on SK-MEL-28; > 100 µM (inactive) in the assay on SF-295; > 100 µM (inactive) in the assay on NCI-H522; > 100 µM (inactive) in the assay on HL-60; more than 100 µM in the assay with HCT-15.

In the case of `CCN(CC)CCCC(C)NC(=O)c1cc(-c2nccn2C)nc2ccc(C)cc12` (configuration not stated), the GI50 was > 100 µM (inactive) in the assay on NCI-H23; 67.5 µM (inactive) in the assay on OVCAR-4; > 100 µM (inactive) in the assay with SW-620; > 100 µM (inactive) in the assay on UACC-257; > 100 µM (inactive) in the assay with SNB-19; > 100 µM (inactive) with UACC-62. Moreover, the concentration for 50% growth inhibition (GI50) in the assay with SR is < 0.01 µM (active); in the assay with RPMI-8226 it was > 100 µM (inactive); in the assay with SF-268, > 100 µM (inactive); in the assay with SK-MEL-2 it was > 100 µM (inactive); in the assay with SNB-75 it was > 100 µM (inactive); in the assay on TK-10, > 100 µM (inactive). Besides, the GI50 in the assay on HOP-62 is > 100 µM (inactive); in the assay on HT-29, > 100 µM (inactive); in the assay on SK-MEL-28, > 100 µM (inactive); with HL-60, > 100 µM (inactive); in the assay on HCT-15, more than 100 µM; in the assay on RXF 393 it was > 100 µM (inactive).

As to `OCCN=C1c2ccccc2C2C(c3ccccc31)C1c3ccccc3C(=NCCO)c3ccccc3C21` (configuration not stated), the GI50 in the assay on NCI-H23 is 44.7 µM (inactive); in the assay on OVCAR-4, 18.8 µM (inactive); in the assay on SW-620, 26.1 µM (inactive); in the assay with UACC-257, 24.7 µM (inactive); in the assay on SNB-19, 10.7 µM (inactive); with UACC-62 it was 15.3 µM (inactive). The GI50 in the assay with SR is 9.48 µM (inactive); in the assay on RPMI-8226, 13.6 µM (inactive); in the assay on SF-268, 23.2 µM (inactive); in the assay with SK-MEL-2 it was 16.4 µM (inactive); with SNB-75 it was 20.4 µM (inactive); in the assay with TK-10, 26.4 µM (inactive). For the same compound, the GI50 with HOP-62 is 18.1 µM (inactive); in the assay with HT-29 it was 15.4 µM (inactive); in the assay on SK-MEL-28 it was 17.5 µM (inactive); in the assay with SF-295 it was 12.9 µM (inactive); in the assay with HL-60 it was 13.9 µM (inactive); with HCT-15, 17.4 µM. Besides, in the assay with RXF 393, the GI50 was 22.8 µM (inactive).

Regarding `N#Cc1c(-c2ccc(Cl)cc2Cl)nc2[nH]nc(S)n2c1=O`, the GI50 in the assay with NCI-H23, in the assay with OVCAR-4, in the assay with SW-620, with UACC-257, in the assay with SNB-19 and in the assay on UACC-62 was > 100 µM (inactive) in each case. Moreover, the GI50 in the assay with SR, in the assay with RPMI-8226, in the assay on SF-268, in the assay with SK-MEL-2, in the assay with TK-10 and with HOP-62 was > 100 µM (inactive) each time. In addition, the GI50 was > 100 µM (inactive) with HT-29; > 100 µM (inactive) in the assay on SK-MEL-28; > 100 µM (inactive) in the assay with SF-295; > 100 µM (inactive) in the assay with NCI-H522; > 100 µM (inactive) with HL-60; more than 100 µM with HCT-15. Moreover, in the assay with RXF 393, the GI50 is > 100 µM (inactive).

As for `COc1ccc(-n2c3c(c4cc(O)ccc42)Cc2ccccc2C3=O)cc1`, the GI50 was > 100 µM (inactive) in the assay on NCI-H23; 7.83 µM (inactive) with OVCAR-4; 57 µM (inactive) in the assay on SW-620; > 100 µM (inactive) in the assay on UACC-257; > 100 µM (inactive) in the assay with SNB-19; 48.5 µM (inactive) in the assay on UACC-62. In addition, the GI50 with SR was 41.9 µM (inactive); in the assay on RPMI-8226, 3.76 µM (inactive); in the assay on SF-268, 26.6 µM (inactive); in the assay on SK-MEL-2, 65.3 µM (inactive); in the assay on SNB-75, 2.19 µM (inactive); with TK-10, 58.7 µM (inactive). Further, the GI50 was 42.7 µM (inactive) with HOP-62; 53.2 µM (inactive) in the assay on HT-29; 28.1 µM (inactive) with SK-MEL-28; 16.5 µM (inactive) with SF-295; > 100 µM (inactive) in the assay on HL-60; 25.1 µM with HCT-15. In addition, the concentration for 50% growth inhibition (GI50) with RXF 393 is < 0.01 µM (active).

As to `Cc1c2cnccc2nc2[nH]c3ccncc3c12`, the GI50 in the assay with NCI-H23 is 1.44 µM (inactive); with OVCAR-4, 11.7 µM (inactive); with SW-620 it was 3.93 µM (inactive); with UACC-257, 20.1 µM (inactive); in the assay with SNB-19 it was 13.7 µM (inactive); in the assay on UACC-62 it was 7 µM (inactive). The GI50 in the assay on SR was 2.79 µM (inactive); with RPMI-8226, 2.24 µM (inactive); with SF-268, 2.47 µM (inactive); in the assay with SK-MEL-2, 11.4 µM (inactive); in the assay with SNB-75, > 100 µM (inactive); in the assay on TK-10 it was 3.95 µM (inactive). The GI50 with HOP-62 is 2.17 µM (inactive); with HT-29, 5.6 µM (inactive); in the assay with SK-MEL-28, 32.4 µM (inactive); with SF-295, 6.84 µM (inactive); in the assay with NCI-H522, 3.91 µM (inactive); with HL-60, 19.9 µM (inactive). Further, in the assay with HCT-15, the concentration for 50% growth inhibition (GI50) was 3.98 µM.

In the case of `COC(=O)c1c(O)ccc2c1c1c(n2Cc2ccccc2OC)C(=O)c2ccccc2C1=O`, the GI50 is 14.1 µM (inactive) in the assay on NCI-H23; 11.7 µM (inactive) with OVCAR-4; 14.2 µM (inactive) in the assay on SW-620; 22.9 µM (inactive) in the assay on UACC-257; 27.2 µM (inactive) with SNB-19; 0.0483 µM (active) in the assay with SR. In addition, the GI50 in the assay with RPMI-8226 is 1.86 µM (inactive); in the assay with SF-268, 11.6 µM (inactive); in the assay on SK-MEL-2, 13.9 µM (inactive); in the assay on TK-10 it was 23.2 µM (inactive); in the assay on HOP-62, 13.6 µM (inactive); with HT-29, 8.18 µM (inactive). Further, the GI50 was 15.8 µM (inactive) with SK-MEL-28; 18.1 µM (inactive) in the assay with SF-295; 11 µM (inactive) in the assay on NCI-H522; 2.04 µM (inactive) in the assay on HL-60; 5.16 µM in the assay with HCT-15; 13.1 µM (inactive) with RXF 393.

`O=c1[nH]c2cc3cccnc3c(Cl)c2nc1CBr`: the GI50 is 15 µM (inactive) in the assay with NCI-H23; 19.3 µM (inactive) in the assay on OVCAR-4; 11.4 µM (inactive) with SW-620; 18.7 µM (inactive) in the assay on UACC-257; 5.73 µM (inactive) in the assay with SNB-19; 12.4 µM (inactive) in the assay on UACC-62. The GI50 was 6.18 µM (inactive) with SR; 6.05 µM (inactive) in the assay with RPMI-8226; 22.2 µM (inactive) with SF-268; 21.7 µM (inactive) with TK-10; 15.5 µM (inactive) in the assay on HOP-62; 19.5 µM (inactive) with HT-29. Besides, the GI50 is 21.6 µM (inactive) in the assay on SF-295; 11 µM (inactive) in the assay on NCI-H522; 20.3 µM (inactive) in the assay on HL-60; 3.08 µM in the assay on HCT-15; 17.7 µM (inactive) in the assay with RXF 393.

As for `CCCNC(=S)NNC(=O)CSc1nc(-c2ccccc2)c(-c2ccccc2)[nH]1`, the GI50 in the assay with NCI-H23 is 76 µM (inactive); with OVCAR-4, 45.1 µM (inactive); in the assay on SW-620, 99.3 µM (inactive); in the assay with UACC-257 it was 45.6 µM (inactive); in the assay with SNB-19, 88.1 µM (inactive); in the assay with UACC-62, > 100 µM (inactive). The GI50 in the assay with SR is 29.2 µM (inactive); with RPMI-8226, 28.4 µM (inactive); in the assay on SF-268 it was > 100 µM (inactive); with SK-MEL-2, > 100 µM (inactive); in the assay on SNB-75 it was 49.1 µM (inactive); in the assay with TK-10 it was 70.5 µM (inactive). Besides, the GI50 in the assay with HOP-62 was > 100 µM (inactive); with HT-29 it was 42 µM (inactive); in the assay on SK-MEL-28, > 100 µM (inactive); with SF-295, 54.6 µM (inactive); in the assay on NCI-H522, 26.7 µM (inactive); in the assay with HL-60 it was 23.2 µM (inactive). The compound further showed a GI50 in the assay on HCT-15 of 49.3 µM.

`N=C(N)NCCCC(NC(=O)c1cccc2c(=O)c3ccccc3[nH]c12)C(=O)O` (configuration not stated): the GI50 in the assay on NCI-H23, with OVCAR-4, in the assay on SW-620, in the assay with SNB-19, with UACC-62 and with SR was > 100 µM (inactive) in each case. For the same compound, the GI50 in the assay with RPMI-8226, in the assay with SF-268, in the assay on SK-MEL-2, with SNB-75, with TK-10 and with HOP-62 was > 100 µM (inactive) throughout. For the same compound, the GI50 in the assay with HT-29 is > 100 µM (inactive); with SK-MEL-28, > 100 µM (inactive); in the assay with SF-295 it was > 100 µM (inactive); in the assay on NCI-H522, > 100 µM (inactive); in the assay on HL-60 it was > 100 µM (inactive); in the assay on HCT-15, more than 100 µM.

The values above are taken from ChEMBL document CHEMBL1201862, “PubChem BioAssay data set” (2004).
